What was measured:
[1] = test system: GALAP (Galium); assay: Preemergence herbicidal evaluation; type: in vivo, Galium aparine; conditions: rated 4-5 weeks after treatment, rating scale 0-9
In short: (§1)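 In this greenhouse assay, monocot and dicot seeds are planted in soil and treated prior to emergence with an aqueous acetone spray (about 0.0156-0.500 kg/ha). Plants are assessed visually against control on a 0-9 scale after 4-5 weeks.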

[2] = test system: AMBEL (Ragweed, Common); assay: Postemergence herbicidal evaluation; type: in vivo, Ambrosia artemisifolia; conditions: postemergence
In short: (§2)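 Scores (0–9) reflect plant stand, vigor, malformation, size, chlorosis and general appearance relative to control, read 4 to 5 weeks after treatment and averaged where tests were repeated. Application: about 0.0156–0.500 kg/ha sprayed at 40 psi onto two-week seedlings.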

[3] = test system: ZEAMX (Corn, Field); assay: Postemergence herbicidal evaluation; type: in vivo, Zea mays; conditions: postemergence
In short: as §2

[4] = test system: IPOHE (Morningglory, Ivyleaf); assay: Postemergence herbicidal evaluation; type: in vivo, Ipomoea hederacea; conditions: postemergence
In short: as §2

[5] = test system: ABUTH (Velvetleaf); assay: Preemergence herbicidal evaluation; type: in vivo, Abutilon theophrasti; conditions: rated 4-5 weeks after treatment, rating scale 0-9
In short: as §1

[6] = test system: AMBEL (Ragweed, Common); assay: Preemergence herbicidal evaluation; type: in vivo, Ambrosia artemisifolia; conditions: rated 4-5 weeks after treatment, rating scale 0-9
In short: as §1

[7] = test system: CYPSE (Flatsedge); assay: Preemergence weed control under flooded paddy conditions; type: in vivo, Cyperus serotinus; conditions: rated 3-4 weeks after treatment
In short: (§3)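 Using flooded silt loam (water 1.5 to 3 cm deep), seeds sown in the top 0.5 cm were exposed preemergence to compound pipetted into the flood at about 0.0313 to 0.500 kg/ha. Effects were scored 0-9 by eye three to four weeks later.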

[8] = test system: ECHCG (Barnyardgrass); assay: Preemergence herbicidal evaluation; type: in vivo, Echinochloa crus-galli; conditions: rated 4-5 weeks after treatment, rating scale 0-9
In short: as §1

[9] = test system: GLXMAW (Soybean, Williams); assay: Preemergence herbicidal evaluation; type: in vivo, Glycine max, (L.) Merr. cv Williams; conditions: rated 4-5 weeks after treatment, rating scale 0-9
In short: as §1

[10] = test system: CASOB (Sicklepod); assay: Preemergence herbicidal evaluation; type: in vivo, Cassia obtusifolia; conditions: rated 4-5 weeks after treatment, rating scale 0-9
In short: as §1

[11] = test system: SAGPY (Arrowhead (Pygmaea)); assay: Preemergence weed control under flooded paddy conditions; type: in vivo, Sagittaria pygmaea; conditions: rated 3-4 weeks after treatment
In short: as §3

[12] = test system: GLXMAW (Soybean, Williams); assay: Postemergence herbicidal evaluation; type: in vivo, Glycine max, (L.) Merr. cv Williams; conditions: postemergence
In short: as §2

[13] = test system: SETVI (Foxtail, Green); assay: Preemergence herbicidal evaluation; type: in vivo, Setaria viridis; conditions: rated 4-5 weeks after treatment, rating scale 0-9
In short: as §1

## Cn1c(C(F)(F)F)cc(=O)n(-c2cc(N=C3SCC(=O)N3Cc3cccc(Cl)c3)c(Cl)cc2F)c1=O [Compound 136, 3-{4-Chloro-5-{[3-(m-chlorobenzyl)-4-oxo-2-thiazolidinylidene]amino}-2-fluorophenyl}-1-methyl-6-(trifluoromethyl)-2,4(1H,3H)-pyrimidinedione]
[1]; rate 0.0156 kg/ha
  Preemergence herbicidal rating GALAP: 0.0
[1]; rate 0.0313 kg/ha
  Preemergence herbicidal rating GALAP: 0.0
[1]; rate 0.0625 kg/ha
  Preemergence herbicidal rating GALAP: 1.0
[1]; rate 0.1250 kg/ha
  Preemergence herbicidal rating GALAP: 2.0
[1]; rate 0.2500 kg/ha
  Preemergence herbicidal rating GALAP: 3.0
[2]; rate 0.0156 kg/ha
  Herbicidal rating AMBEL: 9.0
[2]; rate 0.0313 kg/ha
  Herbicidal rating AMBEL: 9.0
[2]; rate 0.0625 kg/ha
  Herbicidal rating AMBEL: 9.0
[3]; rate 0.0156 kg/ha
  Herbicidal rating ZEAMX: 4.0
[3]; rate 0.0313 kg/ha
  Herbicidal rating ZEAMX: 4.0
[3]; rate 0.0625 kg/ha
  Herbicidal rating ZEAMX: 4.0
[4]; rate 0.0156 kg/ha
  Herbicidal rating IPOHE: 9.0
[4]; rate 0.0313 kg/ha
  Herbicidal rating IPOHE: 9.0
[4]; rate 0.0625 kg/ha
  Herbicidal rating IPOHE: 9.0
[5]; rate 0.0156 kg/ha
  Preemergence herbicidal rating ABUTH: 4.0
[5]; rate 0.0313 kg/ha
  Preemergence herbicidal rating ABUTH: 9.0
[5]; rate 0.0625 kg/ha
  Preemergence herbicidal rating ABUTH: 9.0
[5]; rate 0.1250 kg/ha
  Preemergence herbicidal rating ABUTH: 9.0
[5]; rate 0.2500 kg/ha
  Preemergence herbicidal rating ABUTH: 9.0
[6]; rate 0.0156 kg/ha
  Preemergence herbicidal rating AMBEL: 0.0
[6]; rate 0.0313 kg/ha
  Preemergence herbicidal rating AMBEL: 0.0
[6]; rate 0.0625 kg/ha
  Preemergence herbicidal rating AMBEL: 1.0
[6]; rate 0.1250 kg/ha
  Preemergence herbicidal rating AMBEL: 2.0
[6]; rate 0.2500 kg/ha
  Preemergence herbicidal rating AMBEL: 5.0
[7]; 0.0313 kg/ha
  herbicidal effect rating, CYPSE: 0.0
[7]; 0.0625 kg/ha
  herbicidal effect rating, CYPSE: 0.0
[7]; 0.1250 kg/ha
  herbicidal effect rating, CYPSE: 0.0
[7]; 0.2500 kg/ha
  herbicidal effect rating, CYPSE: 0.0
[8]; rate 0.0156 kg/ha
  Preemergence herbicidal rating ECHCG: 0.0
[8]; rate 0.0313 kg/ha
  Preemergence herbicidal rating ECHCG: 0.0
[8]; rate 0.0625 kg/ha
  Preemergence herbicidal rating ECHCG: 0.0
[8]; rate 0.1250 kg/ha
  Preemergence herbicidal rating ECHCG: 0.0
[8]; rate 0.2500 kg/ha
  Preemergence herbicidal rating ECHCG: 0.0
[9]; rate 0.0156 kg/ha
  Preemergence herbicidal rating GLXMAW: 0.0
[9]; rate 0.0313 kg/ha
  Preemergence herbicidal rating GLXMAW: 0.0
[9]; rate 0.0625 kg/ha
  Preemergence herbicidal rating GLXMAW: 0.0
[9]; rate 0.1250 kg/ha
  Preemergence herbicidal rating GLXMAW: 1.0
[9]; rate 0.2500 kg/ha
  Preemergence herbicidal rating GLXMAW: 2.0
[10]; rate 0.0156 kg/ha
  Preemergence herbicidal rating CASOB: 0.0
[10]; rate 0.0313 kg/ha
  Preemergence herbicidal rating CASOB: 0.0
[10]; rate 0.0625 kg/ha
  Preemergence herbicidal rating CASOB: 0.0
[10]; rate 0.1250 kg/ha
  Preemergence herbicidal rating CASOB: 0.0
[10]; rate 0.2500 kg/ha
  Preemergence herbicidal rating CASOB: 0.0
[11]; 0.0313 kg/ha
  herbicidal effect rating, SAGPY: 0.0
[11]; 0.0625 kg/ha
  herbicidal effect rating, SAGPY: 0.0
[11]; 0.1250 kg/ha
  herbicidal effect rating, SAGPY: 3.0
[11]; 0.2500 kg/ha
  herbicidal effect rating, SAGPY: 3.0
[12]; rate 0.0156 kg/ha
  Herbicidal rating GLXMAW: 4.5
[12]; rate 0.0313 kg/ha
  Herbicidal rating GLXMAW: 5.5
[12]; rate 0.0625 kg/ha
  Herbicidal rating GLXMAW: 5.5
[13]; rate 0.0156 kg/ha
  Preemergence herbicidal rating SETVI: 0.0
[13]; rate 0.0313 kg/ha
  Preemergence herbicidal rating SETVI: 0.0
[13]; rate 0.0625 kg/ha
  Preemergence herbicidal rating SETVI: 2.0
[13]; rate 0.1250 kg/ha
  Preemergence herbicidal rating SETVI: 4.0
[13]; rate 0.2500 kg/ha
  Preemergence herbicidal rating SETVI: 7.0
